# Data: patent publication US8962656B2, “CCR2 antagonists” (Boehringer Ingelheim International GmbH, priority 2010, dated 2015)
# Target: T1, CCR2 (Homo sapiens, UniProt P41597)
# T1 construct: Membranes were prepared from THP-1 cells; endogenous in cells; host or cells: THP-1 (human acute monocytic leukaemia cells), membrane preparation
# Experiment: CCR2 receptor membrane binding assay ([125I]MCP-1, THP-1 membranes, SPA beads)
# Details: THP-1 cell membranes, [125I]MCP-1 displacement, bound radioactivity after 8 h; read-out: hKi
# Procedure: The above exemplary substances have been tested for binding to CCR2 using a binding assay as outlined herein below:
# THP-1 cells (human acute monocytic leukaemia cells) were cultured under standardized conditions at 37° C. and 5% CO2 in a humidified incubator. THP-1 cells were cultivated in RPMI 1640 medium (Gibco 21875) containing 1% MEM-NEAA (Gibco 11140) 2 mM L-glutamine, 1.5 g/L sodium bicarbonate, 4.5 g/L glucose, 10 mM HEPES and 1.0 mM sodium pyruvate, 90%; 10% fetal calf serum (FCS Gibco 10500-064). Membranes were prepared from THP-1 cells. THP-1 cells were centrifuged at 300×g at 4° C. for 10 min. The cell pellet was resuspendet in Phosphate Buffer Saline (PBS, including 10 μM Pefabloc and a protease inhibitor mix ‘complete’, Boehringer Mannheim (1 tablet/50 ml)), to a concentration of […]. The membrane preparation was performed by disrupting the cells by nitrogen […] (at 50 bar, for 1 h) in a “Nitrogen Bombe” (Parr Instrument). Cell debris was removed by centrifugation (800×g at 4° C., 1 min). The supernatant was centrifuged at 80000×g, 4° C. for 30 min to sediment the cell membranes. Usually 50 mg of protein (Bradford assay) were yielded from 1×10E9 cells. The membranes were resuspendet in 25 mM HEPES, 25 mM MgCl2, 1 mM CaCl2, 10% Glycerine for storage in aliquots at −80° C. in 25 mM HEPES, 25 mM MgCl2, 1 mM CaCl2, 10% Glycerine and stored at −80° C.
# Perkin Elmer NEX 332 Jod 125 MCP-1, Stock: 2200 Ci/mmol solved in 2000 μl assay buffer, stored at −20° C. THP-1 membrane were adjusted with 25 mM HEPES, pH 7.2; 5 mM MgCl2; 0.5 mM CaCl2; 0.2% BSA assay buffer to a concentration of 2.5 μg/15 Amersham Biosciences PVT-WGA Beads (RPNQ0001) were adjusted with assay buffer to a concentration of 0.24 mg/30 μl. For preparation of the membrane-bead-suspension membranes and beads were incubated for 30 min at RT under rotation (60 rpm) with a ratio of 1:2. Test compounds dissolved in 100% DMSO to a concentration of 10 mM and are further diluted with 100% DMSO to 1 mM. All additional compound dilutions were obtained with assay buffer, final 1% DMSO. Compounds, membrane-bead-suspension and [125I]MCP-1 (ca. 25000 cpm/10 μl) were incubated. Bound radioactivity was determined by scintillation counter after 8 h. Determination of affinity of test compounds (dissociation constant hKi) is calculated by iterative fitting of experimental data using the “easy sys” program, which is based on law of mass action (Schittkowski K. (1994), Numerische Mathematik, Vol. 68, 129-142).
# T1 sequence (P41597 whole entry): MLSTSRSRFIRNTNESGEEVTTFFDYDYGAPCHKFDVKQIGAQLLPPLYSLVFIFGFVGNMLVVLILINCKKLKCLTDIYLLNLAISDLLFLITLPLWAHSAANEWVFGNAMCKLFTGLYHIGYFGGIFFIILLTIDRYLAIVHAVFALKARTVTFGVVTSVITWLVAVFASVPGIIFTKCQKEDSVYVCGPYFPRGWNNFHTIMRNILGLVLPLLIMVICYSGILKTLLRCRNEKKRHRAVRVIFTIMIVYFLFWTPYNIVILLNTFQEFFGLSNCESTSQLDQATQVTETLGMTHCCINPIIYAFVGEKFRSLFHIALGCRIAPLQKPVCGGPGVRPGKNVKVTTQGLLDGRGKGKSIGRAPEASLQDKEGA
row,SMILES,Ki [nM]
1,CO[C@@H]1COCC[C@@H]1NC1CCN(C(=O)c2cncc(NC[C@H]3CCC[C@@H](c4ccc(C)cc4)O3)c2C)CC1 [Example 3],6
2,CO[C@@H]1COCC[C@@H]1NC1CCN(C(=O)c2cncc(NC[C@H]3CCC[C@@H](c4ccc(OC(F)(F)F)cc4)O3)c2C)CC1 [Example 5],1
3,CO[C@@H]1COCC[C@@H]1NC1CCN(C(=O)c2cncc(NC[C@H]3CCC[C@@H](c4ccc(C)cc4)O3)c2)CC1 [Example 10],107
4,CO[C@H]1COCC[C@H]1NC1CCN(C(=O)c2cncc(NC[C@H]3CCC[C@@H](c4ccc(C)cc4)O3)c2C)CC1 [Example 6],21
5,Cc1c(NCc2ccc(C(C)(C)C)cc2)cncc1C(=O)N1CCC(N2CCC(N(C)S(C)(=O)=O)CC2)CC1 [Example 1],594
6,Cc1c(NC[C@H]2CCC[C@@H](c3ccccc3)C2)cncc1C(=O)N1CCC(N2CCC(N(C)S(C)(=O)=O)CC2)CC1 [Example 2],42
7,CO[C@H]1COCC[C@H]1NC1CCN(C(=O)c2cncc(NC[C@H]3CCC[C@@H](c4ccc(C(F)(F)F)cc4)O3)c2)CC1 [Example 7],40
8,CO[C@@H]1COCC[C@@H]1NC1CCN(C(=O)c2cncc(NCc3ccc(C(F)(F)F)c(Cl)c3)c2C)CC1 [Example 6d],72
9,CO[C@H]1COCC[C@H]1NC1CCN(C(=O)c2cncc(Nc3ccc(Cl)c(Cl)c3)c2C)CC1 [Example 6b],85
10,CO[C@@H]1COCC[C@@H]1NC1CCN(C(=O)c2cncc(NC[C@H]3CCC[C@@H](c4ccc(C(F)(F)F)cc4)O3)c2)CC1 [Example 9],27
11,CO[C@H]1COCC[C@H]1NC1CCN(C(=O)c2cncc(NC[C@H]3CCC[C@@H](c4ccc(OC(F)(F)F)cc4)O3)c2C)CC1 [Example 4],2
12,O=C(c1cncc(NC[C@H]2CCC[C@@H](c3ccc(C(F)(F)F)cc3)O2)c1)N1CCC(NC2CCOCC2F)CC1 (some centres unmarked) [Example 8],100
13,CO[C@@H]1COCC[C@@H]1NC1CCN(C(=O)c2cncc(NCc3ccc(Cl)c(F)c3)c2C)CC1 [Example 6c],133
14,CO[C@@H]1COCC[C@@H]1NC1CCN(C(=O)c2cncc(Nc3ccc(Cl)c(Cl)c3)c2C)CC1 [Example 6a],18
